Test results: patent publication US4497803A, “Inclusion compound of lankacidin-group antibiotic and use thereof” (priority 1982, dated 1985)
In brackets after ≈: the same amount, converted by molar mass. Where two headings read alike, the source gives them in different places.

Assays:
[1] = Solubility of inclusion compound in water; format: physicochemical
Description: The lankacidin-group is added to each of solutions containing various amounts of cyclodextrin. The minimum concentration of cyclodextrin which dissolves the maximum amount of the lankacidin-group compound and practical concentrations thereof are determined on the basis of amounts of the lankacidin-group compound dissolved in the cyclodextrin solutions. Then, the molar ratio of cyclodextrin to lankacidin-group compound is calculated by the following equation:
Molar ratio=[Molarity of cyclodextrin]:[(Saturation molarity of lankacidin-group compound in a certain concentration of cyclodextrin-solution)-(saturation molarity of lankacidin-group compound in an aqueous solution)].
Moreover, a large amount of the present inclusion compound is dissolved in water and it is kept stably therein. Solubility of the inclusion compound in water is greater than that of landacidin-group compounds in water, when the amount of the inclusion compound dissolved is calculated in terms of lankacidin-group compound, and than saturation concentration of cyclodextrin in water so far as cyclodextrin contained in the inclusion compound is concerned (Table 2).
(1) Solubility of lankacidingroup in water.
(2) Solubility of lankacidingroup in M/100 cyclodextrin solution.
(3) Concentration of cyclodextrin of (2).
(4) Solubility (maximum) of the present inclusion compound (calculated in
terms of lankacidingroup contained) in water.
(5) Concentration of cyclodextrin contained in the inclusion compound of […]

[2] = Stability of lankacidin A and C in methanolic aqueous solutions, 40° C., HPLC (Example 7); format: physicochemical; conditions: for Residual rate / remaining at 4 h / remaining at 6 h: 10 μg/ml, 40° C.; for Residual rate: 0 hr; for remaining at 4 h / remaining at 6 h: read-out: Residual rate
Description: 5 ml each of a methanolic solution containing lankacidin A or C in a concentration of 100 μg per ml was added to 45 ml each of pH 4.5 and pH 7.0 buffer solutions and a buffer solution containing β-cyclodextrin.
Each mixture was placed in a glass vessel, and then sealed. While the mixtures were kept in the vessel at 40° C., 5 ml each was taken out from time to time and extracted with ethyl acetate. The organic layers were dried over anhydrous sodium sulfate and the concentrations of the lankacidin A or C was measured with high-performance liquid chromatography (HPLC).
Apparatus: Water Associates ALC/GPC 240 (Waters Associates Inc., U.S.A.)
Column: μPoracil 30 cm×3.9 mm.phi.
Eluent: n-Hexane: isopropyl alcohol: acetic acid (75:25:0.2).

[3] = test system: St. aureus 209P; assay: Stability of inclusion compound of lankacidin-group (24° C., for 6 days): antibacterial activity by paper disk assay; format: cell-based; conditions: methanol, 1000 μg/ml
Description: The inclusion compound of the present invention is stable in an aqueous solution, although it splits into lankacidin-group moiety and cyclodextrins moiety, when it is in the form of solution or powder, by contacting it with organic solvents (e.g., ethyl acetate, methyl isobutyl ketone) or various carriers (e.g., silica gel, high-porous resins). […] In comparing the antibacterial activity, concentrations of the inclusion compound are calculated in terms of lankacidin-group compound from which the inclusion compound is prepared.
Stability of inclusion compound of lankacidin-group
*1 Paper disk assay using Trypticase soy agar (Baltimore Biologicals Ltd.
U.S.A.) as test culture media.
*2 1000 μg/ml, Lankacidingroup is stable in methanol.
*3 Aqueous solution of the inclusion compound with cyclodextrin (1000
μg/ml calculated in terms of lankacidingroup)

[4] = Solubility in β-CD solution, shaken 16 hours (Example 3); format: physicochemical
Description: Powdery lankacidin C was added to an aqueous solution of cyclodextrin (hereinafter referred to as "CD") to have 4 mg/ml of the lankacidin C contained. After the mixture was stirred with a mixer, it was shaken at 5° C. for 2 hours, and passed through filter paper. The absorbancy of the filtrate was measured at 227-229 nm to determine concentration of the lankacidin C.
The solubilities of lankacidin A, lankacidin C and lankacidinol in a β-CD solution were measured in the same manner as that of Example 1 except that the shaking was continued for 16 hours.

[5] = Solubility / suspension in physiological saline for injection (Test Example); format: physicochemical
Description: 10 mg (titer) calculated in terms of lankacidin A is soluble in 1 ml each of physiological saline solution. As a control, lankacidin A itself used in Example 5 was employed.
5.2 ml (titer: 10 mg/kg) of this suspension was administered to pig No. 1 and 4.9 ml (titer: 7 mg/kg) was administered to pig No. 2 by injecting it into root portion of ear once a day for two days.
Thus, administration was impossible.

[6] = methanolic buffer with β-cyclodextrin, pH 4.5, β-cyclodextrin 10 mg/ml
[7] = methanolic buffer with β-cyclodextrin, pH 7.0, β-cyclodextrin 10 mg/ml

**Q.** Which solubility ([1]; m/100 cyclodextrin solution, M/100 cyclodextrin, (3) cyclodextrin 11.3 mg/ml, read-out: (2) Solubility of lankacidin-group in M/100 cyclodextrin solution) does the source give for `CC(=O)OC1C=CC(C)=CCC(O)C=CC(C)=CC(NC(=O)C(C)=O)C2(C)C(=O)OC(C1)C(C)C2=O` (centres unmarked) [Lankacidin A, lankacidin A] here?
**A.** 2690 µg/mL (≈ 5360 µM)

**Q.** And the solubility ([1]; water, read-out: (1) Solubility of lankacidin-group in water)?
**A.** 181 µg/mL (≈ 361 µM)

**Q.** And the Residual rate ([2]; pH 4.5, no β-cyclodextrin)?
**A.** 100%

**Q.** And the Residual rate ([2]; pH 4.5, β-cyclodextrin 10 mg/ml)?
**A.** 100%

**Q.** And the Residual rate ([2]; pH 7.0, no β-cyclodextrin)?
**A.** 100%

**Q.** What about the Residual rate ([2]; pH 7.0, β-cyclodextrin 10 mg/ml) of the same molecule?
**A.** 100%

**Q.** What about the “Effect of β-cyclodextrin on stability in methanolic aqueous solutions” value ([2]; 1000 times β-CD by weight added) of the same molecule?
**A.** increased stabilities

**Q.** And the remaining at 4 h ([2]; methanolic aqueous buffer, pH 4.5, no β-cyclodextrin)?
**A.** 34.5%

**Q.** What about the remaining at 4 h ([2]; methanolic aqueous buffer, pH 7.0, no β-cyclodextrin) of the same molecule?
**A.** 17.4%

**Q.** And the remaining at 4 h [2, 6]?
**A.** 91.9%

**Q.** And the remaining at 6 h [2, 6]?
**A.** 85.7%

**Q.** What about the remaining at 4 h [2, 7] of the same molecule?
**A.** 58.3%

**Q.** What about the remaining at 6 h [2, 7] of the same molecule?
**A.** 48.1%

**Q.** And the “Antibacterial activity, inhibition diameter” value ([3]; 0 day)?
**A.** 26.75 mm

**Q.** What about the “Antibacterial activity, inhibition diameter” value ([3]; 3 days at 24° C.) of the same molecule?
**A.** 27.0 mm

**Q.** What about the “Antibacterial activity, inhibition diameter” value ([3]; 6 days at 24° C.) of the same molecule?
**A.** 23.25 mm

**Q.** What about the solubility at 16 h ([4]; aqueous β-cd solution, β-CD 2 × 10^-3 Mol/l) of the same molecule?
**A.** 632 µg/mL (≈ 1260 µM)

**Q.** What about the solubility at 16 h ([4]; aqueous β-cd solution, β-CD 2 × 10^-4 Mol/l) of the same molecule?
**A.** 201 µg/mL (≈ 401 µM)

**Q.** And the solubility at 16 h ([4]; aqueous β-cd solution, β-CD 5 × 10^-3 Mol/l)?
**A.** 1370 µg/mL (≈ 2730 µM)

**Q.** And the solubility at 16 h ([4]; aqueous β-cd solution, β-CD 5 × 10^-4 Mol/l)?
**A.** 265 µg/mL (≈ 528 µM)

**Q.** What about the solubility at 16 h ([4]; aqueous β-cd solution, β-CD 10^-2 Mol/l) of the same molecule?
**A.** 2690 µg/mL (≈ 5360 µM)

**Q.** And the solubility at 16 h ([4]; aqueous β-cd solution, β-CD 10^-3 Mol/l)?
**A.** 400 µg/mL (≈ 797 µM)

**Q.** What about the solubility at 16 h ([4]; aqueous β-cd solution, β-CD 10^-4 Mol/l) of the same molecule?
**A.** 195 µg/mL (≈ 389 µM)

**Q.** What about the “Solubility in β-CD solution as function of β-CD concentration” value ([4]; from the vicinity of 10^-3 Mol/l of β-CD) of the same molecule?
**A.** increase in proportion to the concentration of β-CD

**Q.** What about the solubility at 16 h ([4]; water, β-CD 0 Mol/l) of the same molecule?
**A.** 181 µg/mL (≈ 361 µM)

**Q.** What about the “Preparation of injection/suspension in sterilized physiological saline solution” value [5] of the same molecule?
**A.** suspension could not be obtained due to separation of the drug
